According to patent US20160152942A1, “METHOD FOR ISOLATING HIGHLY FURFURAL RESISTANT STRAIN AND STRAIN ISOLATED BY THE METHOD” (priority 2014, published 2016):
Like-named read-outs stand apart in the source and are kept apart here.

How the values were obtained:
Format in all cases: cell-based
[1] = test system: Enterobacter cloacae strain GGT036 [Accession No. KCTC 12672BP]; assay: Inhibition of growth by furfural (Test Example 2); conditions: for IC50: LB medium with 1% glucose, 30 °C
Description: (§1) The term “IC50” refers to the concentration of the toxic substance required to inhibit the maximum growth of the microorganism by 50%.
LB media were supplemented with 1% glucose as a carbon source to prepare culture media. To the culture media was added furfural at different concentrations of 20 mM, 40 mM, and 60 mM. The growth rates of the strain in the furfural-containing media were compared with the growth rate of the strain in the furfural-free medium.
After 50 mL of each culture medium was added to an Erlenmeyer flask, Enterobacter cloacae strain GGT036 [Accession No. KCTC 12672BP] was inoculated at an initial OD600 of 1, followed by culture at 30 ° C.
(§2) The half maximal inhibitory concentration (IC50) values of furfural were calculated. As a result, the IC50 value against Enterobacter cloacae strain GGT036 [Accession No. KCTC 12672BP]

E. coli = assay: Inhibition of growth by furfural, IC50 (Test Example 2); conditions: Escherichia coli; against E. coli; read-out: half maximal inhibitory concentration (IC50) of furfural
Description: as §1, §2

[2] = test system: Corynebacterium glutamicum; assay: as above; conditions: against Corynebacterium glutamicum; read-out: half maximal inhibitory concentration (IC50) of furfural
[3] = test system: Corynebacterium glutamicum (Comparative Example 2); assay: Resistance to furfural, growth by turbidity (Test Example 1); conditions: 30 mM furfural, LB with 1% glucose, 30 °C, 24 h
Description: (§3) The degrees of growth of Enterobacter cloacae strain GGT036 [Accession No. KCTC 12672BP], E. coli (Comparative Example 1), and Corynebacterium glutamicum (Comparative Example 2) in media containing 30 mM furfural were compared by turbidity measurements to identify the resistance of Enterobacter cloacae strain GGT036 to furfural.
(§4) The media used were LB media supplemented with 1% glucose. An observation was made to determine the dependence of the growth of the strains in the media containing 30 mM furfural (FIG. 2B) and the furfural-free media (FIG. 2A) on the presence or absence of furfural.
(§5) After 7 mL of each medium was added to a glass tube (24 mm), the colonies obtained in Example 1 were inoculated into the medium, followed by culture at 30° C. for 24 h.

[4] = test system: E. coli (Comparative Example 1); assay: as above; conditions: 30 mM furfural, LB with 1% glucose, 30 °C, 24 h
Description: as §3, §4, §5

[5] = test system: Enterobacter cloacae strain GGT036 [Accession No. KCTC 12672BP]; assay: as above; conditions: 30 mM furfural, LB with 1% glucose, 30 °C, 24 h
Description: as §3, §4, §5

O=Cc1ccco1 [furfural]
OD value of culture ([1]; 60 mM furfural, after 30 h of culturing, initial OD600 of 1): ≤ 2
IC50 ([1]; Enterobacter cloacae, read-out: half maximal inhibitory concentration (IC50) of furfural, against Enterobacter cloacae strain GGT036): 45 to 55 mM
growth rate of strain ([1]; furfural concentration increasing from 0 mM to 40 mM): slightly retarded
IC50 ([1]; read-out: half maximal inhibitory concentration (IC50) of furfural, against Enterobacter cloacae strain GGT036): 47.7 mM
IC50 (E. coli): 24.9 mM
IC50 [2]: 10 mM
growth of strain in furfural-containing medium [3]: not grown
growth of strain in furfural-containing medium [4]: not grown
growth of strain in furfural-containing medium [5]: cell growth was observed
